Measurements from patent US9695155B2, “Herbicidal substituted pyrimidinyloxy benzene compounds” (E. I. DU PONT DE NEMOURS AND COMPANY, priority 2013, dated 2017).

Legend:
barnyardgrass [1] = assay: Test B flooded paddy test; type: in vivo, Echinochloa crus-galli; conditions: Flood, 250 g ai/ha; 0 to 100 scale where 0 is no effect and 100 is complete control
In short: (§1)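 Plants were grown to the 2-leaf stage, then pots were flooded to 3 cm above the soil and compounds were applied directly into the paddy water. That depth was held throughout, and after 13 to 15 days in the greenhouse injury was rated visually against controls on a 0–100 scale (0 no effect, 100 complete control).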

kochia [2] = assay: Test A preemergence; type: in vivo, Kochia scoparia; conditions: for Plant response rating, Kochia: 0 to 100 scale where 0 is no effect and 100 is complete control
In short: (§2)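 Visual 0–100 rating (100 = complete control) taken about 10 d post-treatment relative to untreated checks. Preemergence: directed soil spray on sown loam/sand pots. Postemergence: seedlings 2–10 cm, 1–2 leaf. Non-phytotoxic solvent formulation with surfactant.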

corn = assay: Test A postemergence; type: in vivo, Zea mays; conditions: for Plant response rating, Corn: 0 to 100 scale, 0 no effect, 100 complete control; for Corn plant response rating: 0 to 100 scale where 0 is no effect and 100 is complete control
In short: as §2

wheat = assay: Test A postemergence; type: in vivo, Triticum aestivum; conditions: for Plant response rating, Wheat: 0 to 100 scale, 0 no effect, 100 complete control; for Wheat plant response rating: 0 to 100 scale where 0 is no effect and 100 is complete control
In short: as §2

Italian ryegrass [3] = assay: Test A preemergence; type: in vivo, Lolium multiflorum; conditions: for Plant response rating, Ryegrass, Italian: 0 to 100 scale where 0 is no effect and 100 is complete control
In short: as §2

blackgrass = assay: Test A postemergence; type: in vivo, Alopecurus myosuroides; conditions: for Plant response rating, Blackgrass: 0 to 100 scale, 0 no effect, 100 complete control; for Blackgrass plant response rating: 0 to 100 scale where 0 is no effect and 100 is complete control
In short: as §2

giant foxtail [4] = assay: Test A preemergence; type: in vivo, Setaria faberii; conditions: for Plant response rating, Foxtail, Giant: 0 to 100 scale where 0 is no effect and 100 is complete control
In short: as §2

sedge, umbrella = assay: Test B flooded paddy test; type: in vivo, Cyperus difformis; conditions: Flood, 250 g ai/ha; 0 to 100 scale where 0 is no effect and 100 is complete control
In short: as §1

rice = assay: Test B flooded paddy test; type: in vivo, Oryza sativa; conditions: Flood, 250 g ai/ha; 0 to 100 scale where 0 is no effect and 100 is complete control
In short: as §1

barnyardgrass [5] = assay: Test A preemergence; type: in vivo, Echinochloa crus-galli; conditions: for Plant response rating, Barnyardgrass: 0 to 100 scale where 0 is no effect and 100 is complete control
In short: as §2

giant foxtail [6] = assay: Test A postemergence; type: in vivo, Setaria faberii; conditions: for Plant response rating, Foxtail, Giant: 0 to 100 scale, 0 no effect, 100 complete control; for Foxtail, Giant plant response rating: 0 to 100 scale where 0 is no effect and 100 is complete control
In short: as §2

galium = assay: Test A postemergence; type: in vivo, Galium aparine; conditions: for Plant response rating, Galium: 0 to 100 scale, 0 no effect, 100 complete control; for Galium plant response rating: 0 to 100 scale where 0 is no effect and 100 is complete control
In short: as §2

barnyardgrass [7] = assay: Test A postemergence; type: in vivo, Echinochloa crus-galli; conditions: for Plant response rating, Barnyardgrass: 0 to 100 scale, 0 no effect, 100 complete control; for Barnyardgrass plant response rating: 0 to 100 scale where 0 is no effect and 100 is complete control
In short: as §2

kochia [8] = assay: Test A postemergence; type: in vivo, Kochia scoparia; conditions: for Plant response rating, Kochia: 0 to 100 scale, 0 no effect, 100 complete control; for Kochia plant response rating: 0 to 100 scale where 0 is no effect and 100 is complete control
In short: as §2

Heteranthera limosa = assay: Test B flooded paddy test; type: in vivo; conditions: Flood, 250 g ai/ha; 0 to 100 scale where 0 is no effect and 100 is complete control
In short: as §1

ragweed [9] = assay: Test A postemergence; type: in vivo, Ambrosia elatior; conditions: for Plant response rating, Ragweed: 0 to 100 scale, 0 no effect, 100 complete control; for Ragweed plant response rating: 0 to 100 scale where 0 is no effect and 100 is complete control
In short: as §2

pigweed [10] = assay: Test A preemergence; type: in vivo, Amaranthus retroflexus; conditions: for Plant response rating, Pigweed: 0 to 100 scale where 0 is no effect and 100 is complete control
In short: as §2

ragweed [11] = assay: Test A preemergence; type: in vivo, Ambrosia elatior; conditions: for Plant response rating, Ragweed: 0 to 100 scale where 0 is no effect and 100 is complete control
In short: as §2

pigweed [12] = assay: Test A postemergence; type: in vivo, Amaranthus retroflexus; conditions: for Plant response rating, Pigweed: 0 to 100 scale, 0 no effect, 100 complete control; for Pigweed plant response rating: 0 to 100 scale where 0 is no effect and 100 is complete control
In short: as §2

Italian ryegrass [13] = assay: Test A postemergence; type: in vivo, Lolium multiflorum; conditions: for Plant response rating, Ryegrass, Italian: 0 to 100 scale, 0 no effect, 100 complete control; for Ryegrass, Italian plant response rating: 0 to 100 scale where 0 is no effect and 100 is complete control
In short: as §2

[14] = 31 g ai/ha, visual, approximately 10 days
[15] = 1000 g ai/ha, 0 to 100 scale, 0 no effect, 100 complete control, approx. 10 days

Structure (SMILES) | Plant response rating, Barnyardgrass (barnyardgrass [1]) | Plant response rating, Kochia (kochia [2]; [14]) | Plant response rating, Corn (corn; 31 g ai/ha) | Plant response rating, Wheat (wheat; 31 g ai/ha) | Plant response rating, Ryegrass, Italian (Italian ryegrass [3]; [14]) | Plant response rating, Blackgrass (blackgrass; 31 g ai/ha) | Plant response rating, Foxtail, Giant (giant foxtail [4]; [14]) | Plant response rating, Sedge, Umbrella (sedge, umbrella) | Plant response rating, Rice (rice) | Plant response rating, Barnyardgrass (barnyardgrass [5]; [14]) | Plant response rating, Foxtail, Giant (giant foxtail [6]; 31 g ai/ha) | Plant response rating, Galium (galium; 31 g ai/ha) | Plant response rating, Barnyardgrass (barnyardgrass [7]; 31 g ai/ha) | Plant response rating, Kochia (kochia [8]; 31 g ai/ha) | Plant response rating, Ducksalad (Heteranthera limosa) | Plant response rating, Ragweed (ragweed [9]; 31 g ai/ha) | Plant response rating, Pigweed (pigweed [10]; [14]) | Plant response rating, Ragweed (ragweed [11]; [14]) | Plant response rating, Pigweed (pigweed [12]; 31 g ai/ha) | Plant response rating, Ryegrass, Italian (Italian ryegrass [13]; 31 g ai/ha) | also measured
CC(C)Oc1cnn(-c2c(Br)cccc2Oc2ncc(F)cn2)c1 [Compound 156] | 0 | 0 | 0 | 0 | 0 | 0 | 0 | 0 | 0 | 0 | 0 | 20 | 0 | 0 | 0 | 0 | 0 | 0 | 10 | 0 | Plant response rating, Kochia (kochia [2]; 125 g ai/ha): 10; Corn plant response rating (corn; 125 g ai/ha): 10; Wheat plant response rating (wheat; 125 g ai/ha): 0; Plant response rating, Ryegrass, Italian (Italian ryegrass [3]; 125 g ai/ha): 0; Blackgrass plant response rating (blackgrass; 125 g ai/ha): 20; Plant response rating, Foxtail, Giant (giant foxtail [4]; 125 g ai/ha): 70; Plant response rating, Barnyardgrass (barnyardgrass [5]; 125 g ai/ha): 30; Foxtail, Giant plant response rating (giant foxtail [6]; 125 g ai/ha): 10; Galium plant response rating (galium; 125 g ai/ha): 30; Barnyardgrass plant response rating (barnyardgrass [7]; 125 g ai/ha): 10; Kochia plant response rating (kochia [8]; 125 g ai/ha): 40; Ragweed plant response rating (ragweed [9]; 125 g ai/ha): 40; Plant response rating, Pigweed (pigweed [10]; 125 g ai/ha): 0; Plant response rating, Ragweed (ragweed [11]; 125 g ai/ha): 0; Pigweed plant response rating (pigweed [12]; 125 g ai/ha): 20; Ryegrass, Italian plant response rating (Italian ryegrass [13]; 125 g ai/ha): 0
CC(C)Oc1cnn(-c2c(C#N)cccc2Oc2ncc(F)cn2)c1 [Compound 158] | 0 | 50 | 0 | 0 | 30 | 50 | 60 | 0 | 40 | 10 | 20 | 60 | 20 | 60 | 50 | 60 | 50 | 40 | 40 | 20 | Plant response rating, Kochia (kochia [2]; 125 g ai/ha): 70; Corn plant response rating (corn; 125 g ai/ha): 30; Wheat plant response rating (wheat; 125 g ai/ha): 0; Plant response rating, Ryegrass, Italian (Italian ryegrass [3]; 125 g ai/ha): 50; Blackgrass plant response rating (blackgrass; 125 g ai/ha): 60; Plant response rating, Foxtail, Giant (giant foxtail [4]; 125 g ai/ha): 90; Plant response rating, Barnyardgrass (barnyardgrass [5]; 125 g ai/ha): 70; Foxtail, Giant plant response rating (giant foxtail [6]; 125 g ai/ha): 70; Galium plant response rating (galium; 125 g ai/ha): 100; Barnyardgrass plant response rating (barnyardgrass [7]; 125 g ai/ha): 80; Kochia plant response rating (kochia [8]; 125 g ai/ha): 80; Ragweed plant response rating (ragweed [9]; 125 g ai/ha): 80; Plant response rating, Pigweed (pigweed [10]; 125 g ai/ha): 70; Plant response rating, Ragweed (ragweed [11]; 125 g ai/ha): 80; Pigweed plant response rating (pigweed [12]; 125 g ai/ha): 50; Ryegrass, Italian plant response rating (Italian ryegrass [13]; 125 g ai/ha): 50
Fc1cccc(Oc2ncc(Cl)cn2)c1-n1ccnn1 [Compound 159] | 0 | – | – | – | – | – | – | 0 | 0 | – | – | – | – | – | 0 | – | – | – | – | – | Kochia plant response rating (kochia [2]; [15]): 100; Plant response rating, Corn (corn; 1000 g ai/ha): 40; Plant response rating, Wheat (wheat; 1000 g ai/ha): 30; Ryegrass, Italian plant response rating (Italian ryegrass [3]; [15]): 30; Plant response rating, Blackgrass (blackgrass; 1000 g ai/ha): 50; Foxtail, Giant plant response rating (giant foxtail [4]; [15]): 100; Barnyardgrass plant response rating (barnyardgrass [5]; [15]): 100; Plant response rating, Foxtail, Giant (giant foxtail [6]; 1000 g ai/ha): 90; Plant response rating, Galium (galium; 1000 g ai/ha): 90; Plant response rating, Barnyardgrass (barnyardgrass [7]; 1000 g ai/ha): 70; Plant response rating, Kochia (kochia [8]; 1000 g ai/ha): 100; Plant response rating, Ragweed (ragweed [9]; 1000 g ai/ha): 80; Pigweed plant response rating (pigweed [10]; [15]): 100; Ragweed plant response rating (ragweed [11]; [15]): 100; Plant response rating, Pigweed (pigweed [12]; 1000 g ai/ha): 100; Plant response rating, Ryegrass, Italian (Italian ryegrass [13]; 1000 g ai/ha): 30
Fc1cnc(Oc2ccccc2-n2cc(OCC(F)(F)F)cn2)nc1 [Compound 241] | 0 | 50 | 0 | 0 | 0 | 0 | 50 | 0 | 0 | 10 | 0 | 40 | 0 | 50 | 40 | 10 | 80 | 0 | 40 | 0 | Kochia plant response rating (0 to 100 scale) (kochia [2]; 125 g ai/ha): 100; Plant response rating, Corn (corn; 125 g ai/ha): 10; Plant response rating, Wheat (wheat; 125 g ai/ha): 10; Ryegrass, Italian plant response rating (0 to 100 scale) (Italian ryegrass [3]; 125 g ai/ha): 0; Plant response rating, Blackgrass (blackgrass; 125 g ai/ha): 20; Foxtail, Giant plant response rating (0 to 100 scale) (giant foxtail [4]; 125 g ai/ha): 100; Barnyardgrass plant response rating (0 to 100 scale, 0 is no effect, 100 is complete control) (barnyardgrass [5]; 125 g ai/ha): 60; Plant response rating, Foxtail, Giant (giant foxtail [6]; 125 g ai/ha): 20; Plant response rating, Galium (galium; 125 g ai/ha): 60; Plant response rating, Barnyardgrass (barnyardgrass [7]; 125 g ai/ha): 10; Plant response rating, Kochia (kochia [8]; 125 g ai/ha): 90; Plant response rating, Ragweed (ragweed [9]; 125 g ai/ha): 30; Pigweed plant response rating (0 to 100 scale) (pigweed [10]; 125 g ai/ha): 100; Ragweed plant response rating (0 to 100 scale) (ragweed [11]; 125 g ai/ha): 40; Plant response rating, Pigweed (pigweed [12]; 125 g ai/ha): 80; Plant response rating, Ryegrass, Italian (Italian ryegrass [13]; 125 g ai/ha): 0
